In patent US20230270139A1, “COMPOSITIONS TO PROMOTE SWALLOWING SAFETY AND EFFICIENCY” (SOCIETE DES PRODUITS NESTLE S.A., priority 2020, published 2023):

Molecular target: TRPA1 (Homo sapiens, UniProt O75762)
Experiment: Synergy of cinnamaldehyde and zinc on pharmacological activity of TRPA1, in vitro
Text: The trigeminal ingredient may comprise cinnamaldehyde and zinc. The combination provides a minimal flavor impact and is effective to promote a swallowing reflex. Cinnamaldehyde and zinc have a synergy on the pharmacological activity of TRPA1. Using this synergy, the effective amount of cinnamaldehyde can be decreased by supplementing the cinnamaldehyde with small amount of zinc. Consequently, the combination of cinnamaldehyde and zinc can promote a swallowing reflex at concentrations in food that are tolerable both in flavor/taste and in the gastrointestinal tract. Moreover, the synergy only requires a low concentration of zinc (in vitro<1 μM).

Sequence of TRPA1 (O75762 whole entry, species assumed): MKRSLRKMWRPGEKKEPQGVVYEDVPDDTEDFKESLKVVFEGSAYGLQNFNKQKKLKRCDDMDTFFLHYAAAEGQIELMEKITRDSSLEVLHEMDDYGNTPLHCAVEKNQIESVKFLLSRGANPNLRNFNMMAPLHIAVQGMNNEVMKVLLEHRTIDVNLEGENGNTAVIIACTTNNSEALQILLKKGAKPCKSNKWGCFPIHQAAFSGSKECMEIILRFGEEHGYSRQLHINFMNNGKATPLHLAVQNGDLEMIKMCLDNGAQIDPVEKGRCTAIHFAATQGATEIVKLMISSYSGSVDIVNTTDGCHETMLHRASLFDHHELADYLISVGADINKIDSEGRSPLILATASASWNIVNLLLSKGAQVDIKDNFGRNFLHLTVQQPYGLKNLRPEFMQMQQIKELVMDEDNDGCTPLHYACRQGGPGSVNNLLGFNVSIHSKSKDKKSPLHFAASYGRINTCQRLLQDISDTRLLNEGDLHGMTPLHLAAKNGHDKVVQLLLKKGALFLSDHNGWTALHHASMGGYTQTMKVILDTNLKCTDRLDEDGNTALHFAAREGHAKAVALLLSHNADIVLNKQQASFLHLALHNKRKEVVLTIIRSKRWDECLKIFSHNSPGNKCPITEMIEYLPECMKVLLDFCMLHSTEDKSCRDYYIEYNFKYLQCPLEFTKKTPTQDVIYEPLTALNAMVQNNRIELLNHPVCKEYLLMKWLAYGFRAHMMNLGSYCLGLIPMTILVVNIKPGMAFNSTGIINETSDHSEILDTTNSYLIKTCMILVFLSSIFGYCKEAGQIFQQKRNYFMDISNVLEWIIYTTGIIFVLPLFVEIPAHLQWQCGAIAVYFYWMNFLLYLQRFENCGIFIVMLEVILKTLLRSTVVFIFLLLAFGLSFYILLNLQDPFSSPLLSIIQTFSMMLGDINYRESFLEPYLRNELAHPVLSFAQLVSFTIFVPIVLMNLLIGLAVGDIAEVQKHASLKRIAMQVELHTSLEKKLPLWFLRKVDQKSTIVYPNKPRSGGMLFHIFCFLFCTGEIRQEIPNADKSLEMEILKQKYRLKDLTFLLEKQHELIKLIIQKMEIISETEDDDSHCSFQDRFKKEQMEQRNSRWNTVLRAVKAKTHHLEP

[Zn] [zinc] was tested. Which “zinc concentration required for synergy with cinnamaldehyde” value did it give?
Its value is less than 1 µM.
